Results on 1 compound are retold here after patent publication US9138411B2 (University of North Texas Health Science Center, priority 2012, dated 2015).

The conditions of this data set: human, in vivo, 4.5 mg/kg.

`COc1cc(/C=C/C(=O)CC(=O)/C=C/c2ccc(O)c(OC)c2)ccc1O` [curcumin, diferuloylmethane] gave a blood plasma levels of 5 to 11 µmol.
